Data as given in patent publication US10143748B2, “B-cell reduction using CD37-specific and CD20-specific binding molecules” (Emergent Product Development Seattle, LLC, priority 2005, dated 2018).
“Also recorded” adds a separate entry of the source.

How the values were obtained:
[1] = test system: Rituximab-resistant cells (Raji 4RH and RL 4RH); experiment: direct cytotoxicity in rituximab-resistant cells, annexin/PI; assay type: cell-based; conditions: TRU-016 5 μg/mL, rituximab 10 μg/mL, five-fold excess goat anti-human IgG, 24 hours
Description: Direct cytoxicity was measured by annexin/PI staining and cell viability (percent) was calculated relative to control cells (cells treated with herceptin).

[2] = target: T1, C1q (Homo sapiens, UniProt P02745+P02746+P02747); experiment: FITC C1q binding to reagent-coated Ramos B cells in normal human serum; conditions: normal human serum 1.25-10%, FIG. 3A
T1 construct: normal human serum (NHS, #A113, Quidel Corp., San Diego, Calif.); tissue Quidel Corp. A113; host or cells: normal human serum (purchased), added to reagent-coated Ramos B cells
T1 sequence (P02745 23-245): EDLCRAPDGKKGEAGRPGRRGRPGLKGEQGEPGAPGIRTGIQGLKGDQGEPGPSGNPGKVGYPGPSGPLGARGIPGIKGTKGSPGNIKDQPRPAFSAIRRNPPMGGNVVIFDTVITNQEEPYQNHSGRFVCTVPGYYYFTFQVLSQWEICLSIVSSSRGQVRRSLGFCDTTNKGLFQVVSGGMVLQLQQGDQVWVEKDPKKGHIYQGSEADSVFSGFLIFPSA
T1 sequence (P02746 28-253): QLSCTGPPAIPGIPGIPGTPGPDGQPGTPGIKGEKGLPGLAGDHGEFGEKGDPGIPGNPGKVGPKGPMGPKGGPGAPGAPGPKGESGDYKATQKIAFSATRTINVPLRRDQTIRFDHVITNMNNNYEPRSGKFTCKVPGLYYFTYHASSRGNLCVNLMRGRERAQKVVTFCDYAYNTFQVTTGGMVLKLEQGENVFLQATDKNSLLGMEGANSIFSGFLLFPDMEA
T1 sequence (P02747 29-245): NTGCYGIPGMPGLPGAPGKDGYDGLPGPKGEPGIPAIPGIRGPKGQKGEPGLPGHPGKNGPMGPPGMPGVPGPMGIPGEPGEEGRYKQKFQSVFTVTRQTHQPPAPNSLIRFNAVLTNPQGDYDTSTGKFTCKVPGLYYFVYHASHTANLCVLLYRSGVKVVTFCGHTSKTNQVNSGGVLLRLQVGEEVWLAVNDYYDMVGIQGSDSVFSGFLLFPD
Description: C1q binding studies were performed as previously described (Cragg et al., Blood 2004, 103:2738-2743). Briefly, Ramos B-cells in Iscoves media (#12440-053, Gibco/Invitrogen, Grand island, NY) with no serum were plated in 96-well V bottom plates at 5×10^5/well in 100 μl. Cells were incubated with reagents for 15 minutes at 37° C., and normal human serum (NHS, #A113, Quidel Corp., San Diego, Calif.) diluted in Iscoves was then added at a volume of 50 μl to each well for a final concentration of 10, 5, 2.5, or 1.25% human serum. Fifty μl of media was added to the control well. For cobra venom factor (CVF) experiments, CVF was added to human serum complement samples at 20 Units CVF/mL of serum for 90 minutes at 37° C. prior to addition of serum to complement assays, and the dilution of serum by CVF accounted for when making sample dilutions.
The cells plus complement source were incubated for an additional 5 minutes at 37° C., and washed 2 times with cold PBS (#14040-133, Gibco/Invitrogen, Grand Island, N.Y.) via centrifugation and resuspended in 100 μl of PBS. Fifty μl from each well was transferred to a second plate for second step control staining. […] Samples were washed, resuspended in cold PBS, and read immediately on a FACsCalibur flow cytometer and analyzed with Cell Quest software (Becton Dickinson, San Jose, Calif.).

[3] = target: T2, CD37 (Homo sapiens, UniProt P11049); experiment: competitive binding / FACs cross blocking of FITC anti-CD37 reagents on BJAB cells; set-up: BJAB-cells, a B lymphoblastoid B-cell line, (courtesy of Ed Clark, University of Washington); endogenous in cells; host or cells: BJAB B lymphoblastoid cell line; conditions: unlabeled blocking reagent, FIG. 2
T2 sequence (P11049 1-281): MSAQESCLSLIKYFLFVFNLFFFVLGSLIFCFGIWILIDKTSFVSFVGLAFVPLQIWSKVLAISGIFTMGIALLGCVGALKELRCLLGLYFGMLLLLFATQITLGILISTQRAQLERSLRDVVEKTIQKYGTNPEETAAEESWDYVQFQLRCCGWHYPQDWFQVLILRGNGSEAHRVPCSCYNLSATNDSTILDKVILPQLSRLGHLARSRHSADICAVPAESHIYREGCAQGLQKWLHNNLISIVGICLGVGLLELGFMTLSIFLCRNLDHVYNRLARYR
Description: FITC labeled antibody conjugates were titrated from 10 μg/mL to 10 pg/mL in an initial binding study to determine the optimal amounts to use in the blocking studies. The level chosen was just below saturating amounts, and was kept constant in the subsequent assays, while levels of blocking antibody were increased over a 10-fold range. Data were plotted as percent of maximal binding versus concentration of blocking antibody, so that higher levels indicate less efficient blocking, while lower levels indicate more efficient blocking activity.
BJAB-cells, a B lymphoblastoid B-cell line, (courtesy of Ed Clark, University of Washington) were then stained with a panel of various clones of anti-CD37 MAbs, including MB371, BL14, NMN46, IPO24, HH1, WR17, and the TRU-016 SMIP.
For competitive binding assays, 2.5×10^5 BJAB cells were incubated in 96-well V-bottom plates in staining media (PBS with 2% mouse sera) with the FITC-conjugated anti-CD37 MAbs at 1.25 μg/mL in the presence of unconjugated anti-CD37 MAb at the indicated concentrations (2.5, 1.25, 0.6, or 0.3 μg/ml) or staining media for 45 minutes on ice in the dark. Blocking antibodies and FITC labeled antibody conjugates were added to reactions prior to addition of cells. […] The cells were analyzed by flow cytometry using a FACsCalibur instrument and CellQuest software (BD Biosciences, San Jose, Calif.). […]

[4] = test system: CD19 and CD40 positive lymphocytes (B cells); experiment: depletion of normal B cells from human PBMC cultures; assay type: cell-based; conditions: 1 μg/ml, 24 to 72 hours, FIG. 20C
Description: Human PBMCs were isolated from whole blood by LSM density centrifugation. […] A portion of the incubation reaction was harvested at 48 hours and again at 72 hours after initiation of the experiment. PBMCs were washed and incubated with FITC anti-CD19, FITC anti-CD40, or FITC anti-CD3 for 45 minutes on ice.

[5] = test system: Daudi tumors; experiment: Daudi tumor xenograft in nude mice; assay type: in vivo, mouse
Description: (§1) Ramos and Daudi tumor cells were separately grown and (5×10^6) cells were injected subcutaneously in the right flank of mice to initiate the formation of mouse tumor xenografts. After tumor development, mice were sorted into groups based on tumor size/volume (day 0). […] Tumor volume was blindly measured three times weekly with calipers until completion of the experiment (sacrifice or regression).

[6] = test system: Ramos tumors; experiment: Ramos tumor xenograft in nude mice; assay type: in vivo, mouse
Description: Mouse tumor xenograft studies exploring combination therapies were performed using nude mice (Harlan) and Ramos or Daudi human tumor lines. Ramos or Daudi tumor cells were grown in T150 flasks in IMDM/10% FBS until they reached 80% confluency. Five million (5×10^6) cells were used as a tumor inoculum per mouse. Cells were injected subcutaneously in the right flank using PBS in a total volume of 0.1 ml or 5.0×1 0^7/ml. Nude mice were allowed to develop tumors and sorted into groups based on tumor size/volume. For each treatment group, 12 mice with a mean tumor volume of approximately 222 mm^3 (range =152-296mm^3) were used. Some mean tumor volumes ranging from 237-251 mm^3 were also used. […] Tumor volume was measured daily with calipers until completion of the experiment (sacrifice or regression).
Mouse tumor xenograft studies were performed using nude mice (Harlan) and Ramos or Daudi human tumor lines. Three different studies were performed based on tumor type and tumor size at the time of treatment with the TRU-016 or other test reagent. Ramos or Daudi tumor cells were grown and (5×10^6) cells were injected subcutaneously in the right flank to inoculate each treated mouse with the tumor. Nude mice were allowed to develop tumors and sorted into groups based on tumor size/volume. In the first study, for each treatment group, 12 mice with a mean tumor volume of 155-237 mm^3 were used. […] Tumor volume was measured daily with calipers until completion of the experiment (sacrifice or regression).
as §1

[7] = test system: Ramos B cells; experiment: CDC assay, Ramos B cells with human serum complement, propidium iodide; assay type: cell-based; conditions: Ramos B cells, human serum
Description: (§2) The cells were incubated 60 minutes at 37° C. […] Samples were incubated 15 minutes at room temperature in the dark prior to analysis by flow cytometry using a FACsCalibur and CellQuest software (Becton Dickinson).
as §2

[8] = established Daudi tumors, 100 μg

Substance: G28-1 scFv VH11S(SSC—P)H WCH2 WCH3 [TRU-016]
- cell toxicity (cell viability relative to herceptin-treated cells) [1]: greater cell toxicity than rituximab
- FITC C1q binding [2]: does not bind well
- blocking activity (inhibition of binding of FITC anti-CD37 conjugates) [3]: highest level of blocking activity
- depletion of B lymphocytes compared to T lymphocytes [4]: capable of specific depletion of CD37 positive B lymphocytes
- survival time ([5]; Daudi tumor xenograft, FIGS. 25 and 26): more effective than rituximab in maintaining survival; also recorded: significantly enhanced survival time compared to the control group; also recorded: statistically significant increase in median survival time
- Median Survival Time [5, 8]: 24 days
- Percentage of Tumor Free Mice at Day 90 [5, 8]: 25%
- long-term complete regression of tumors (tumor regression rate) ([6]; Ramos tumors, 200 μg, pooled data from 3 experiments): 20%
- average tumor volume after treatment ([6]; Ramos, 200 μg/mouse IV days 0, 2, 4, 6, 8, versus huIgG): smaller than that observed using the negative control (huIgG)
- Median Survival Time ([6]; established Ramos tumors, 200 μg): 16 days
- Percentage of Tumor- Free Mice at Day 90 ([6]; established Ramos tumors, 200 μg, IV days 0, 2, 4, 6, 8): 20%
- survival time / median survival time ([6]; established Ramos tumors, combination vs TRU-016 p=0.028, vs rituximab p=0.045): inhibition of tumor growth and improved survival times equivalent to rituximab
- tumor growth and median survival ([6]; mice with the smaller Ramos tumors): inhibition of tumor growth and increased median survival times
- CDC activity with human complement, single reagent [7]: fails to mediate CDC unless aggregates are present
